Assays:
Assay type in all cases: in vivo
Septoria tritici = test: Field test, Septoria tritici on wheat
Description: (§1) The trials are carried out under greenhouse (Examples 1 to 32) or field conditions (Examples 33 to 40) in residual or curative applications. The fungicides are applied in single treatments, or in a combination comprising an azolopyrimidine of formula I and a compound selected from the classes (A), (B) and (C) as defined above. The compounds are applied in form of an aqueous spray mix obtained from a concentrated formulation or the technical material.
(§2) For the field study formulated Azolopyrimidine A, B or C and formulated compounds from the classes (A), (B) and (C) were used.
(§3) Assessments of the diseases took place at the indicated day after the application of the compounds. Per cent infected leaf area infected was evaluated. The efficacy of the compounds/compounds mixtures to control the diseases was calculated by using the formula given above under item 4: […]
(§4) Synergy was calculated using the % disease control values of specific treatments for the two COLBY formula given hereinabove
(§5) The compounds are applied according to good agricultural practice in the form of an aqueous spray mix obtained from a concentrated formulation or the technical material at a rate of 400 l/ha. The disease control is evaluated according to the formula given for the greenhouse tests.
Fungicidal efficacy of the mixture of Azolopyrimidine C+metconazole in the field against Septoria tritici on wheat The tank mix was obtained from an EC formulation containing 150 g Azolopyrimidine C per liter and a SL formulation containing 60 g metconazole per liter. The observed and expected efficacies with different rates are given in Table XXXIVa (19 days after application) and Table XXXIVb (25 days after application):
Fungicidal efficacy of the mixture of (S)-Azolopyrimidine C+kresoxim methyl in the field against Septoria tritici on wheat The tank mix was obtained from a SC formulation containing 100 g (S)-Azolopyrimidine C per liter and a WG formulation containing 500 g kresoxim methyl per kg. The observed and expected efficacies with different rates are given in Tables XXXVa (7 days after application), XXXVb (22 days after application), XXXVc (34 days after application), and XXXVd (41 days after application):
(§6) Fungicidal efficacy of the mixture of Azolopyrimidine A and different cereal fungicides the field against Septoria tritici on wheat 15 days after application The tank mix was obtained from an SC formulation containing 100 g Azolopyrimidine A per liter and commercially available formulations of metconazole, epoxiconazole or propiconazole, respectively.

Blumeria graminis [1] = test: Field test, Blumeria graminis on wheat; conditions: 15 days after application
Description: as §1, §2, §3, §4, §5
(§7) Fungicidal efficacy of the mixture of (S)-Azolopyrimidine C+cyproconazole in the field against Blumeria graminis on wheat 17 days after application The tank mix was obtained from a SC formulation containing 100 g (S)-Azolopyrimidine C per liter and an EC formulation containing 60 g cyproconazole per liter.
as §7, with “C+azoxystrobin” for “C+cyproconazole”, “a SC” for “an EC”, “250” for “60”, “azoxystrobin” for “cyproconazole”, “kg.” for “liter.”
as §6, with “fungicides in” for “fungicides”, “Blumeria graminis” for “Septoria tritici”, “kresoxim methyl,” for “propiconazole,”

Puccinia recondita [2] = test: Field test, Puccinia recondita on wheat; conditions: 50 days after application
Description: as §1, §2, §3, §4, §5
as §6, with “fungicides in” for “fungicides”, “Puccinia recondita” for “Septoria tritici”, “50” for “15”, “epoxiconazole, propiconazole” for “epoxiconazole”, “kresoxim methyl,” for “propiconazole,”

Leptosphaeria nodorum = test: Greenhouse, Leptosphaeria nodorum on wheat, 3 day residual
Description: as §1
(§8) 1. Seed is planted in 6 cm diameter plastic pots and maintained in the greenhouse.
(§9) 2. When the primary leaf is fully expanded in the case of cereals or several leaves are present in the case of dicots, formulated test compounds are sprayed with a three nozzle overhead fungicide sprayer to near run-off. Alternatively, a single nozzle overhead track sprayer is used for application of the compounds to cereals at a rate of 200 l/ha. Plants are then allowed to air-dry.
(§10) 3. Inoculation precedes treatment in the case of curative evaluations and follows treatment in case of residual evaluations. For inoculation of powdery mildew disease, plants are set up on greenhouse benches with bottom watering mats and inoculated by dusting them with conidia from infected plants. Between inoculation and treatment for curative evaluations and between treatment and inoculation for residual evaluations, plants are maintained in the greenhouse with bottom watering.
(§11) For inoculation of non-powdery mildew diseases, an aqueous spore suspension of the pathogen is applied to the plant and the plants are kept 1-2 days in a moist infection chamber before being returned to the greenhouse where they are maintained by bottom watering.
(§12) 4. Disease on the foliage as percent leaf area with disease symptoms/signs is evaluated about 7 days after inoculation. In the case of wheat, the tips and bases of the leaves are excluded from the evaluation. [formula]
(§13) 1. Technical compounds are formulated in a solvent/surfactant system consisting of 5% acetone and 0.05% Tween 20 in deionized water. Compounds are dissolved in acetone prior to addition of the water; the Tween 20 can be added through either the acetone or the water. Dilutions are made using the solvent/surfactant system. Formulated compounds are prepared using deionized water.
(§14) 2. Two kinds of controls are included: Plants treated with the solvent/surfactant solution and inoculated (Solvent Blank). Untreated plants which are inoculated (Inoculated Control).
as §3, §4
Fungicidal efficacy of the mixture of Azolopyrimidine A+fenpropimorph (3 day residual) against Leptosphaeria nodorum on wheat The tank mix was obtained from technical material of Azolopyrimidine A and an EC formulation containing 750 g fenpropimorph per liter.
Fungicidal efficacy of the mixture of Azolopyrimidine A+tebuconazole (3 day residual) against Leptosphaeria nodorum on wheat The tank mix was obtained from technical material of Azolopyrimidine A and an EC formulation containing 250 g tebuconazole per liter.

Blumeria graminis [3] = test: Greenhouse, Blumeria graminis on wheat, 2 day residual; conditions: Example 3
Description: as §1, §8, §9, §10, §12
1. […]
as §3
Synergy was calculated using the % disease control values of specific treatments for the two COLBY formula given hereinabove […]

Botrytis cinerea = test: Apple fruit Botrytis test, Botrytis cinerea on apple fruits, 3 day residual
Description: 1. Apples (Malus X domestica Borkh.) variety Golden Delicious are disinfected by washing them briefly in 70% ethanol. After drying the apples are marked with four short equal-distant lines indicating the positions to be wounded.
2. Corresponding with the marks, four holes are poked around the apple equator with a pipette tip. 10 μl of the treatment solution are pipetted into each hole.
3. Three hours after application, 10 μl of a conidial suspension of Botrytis cinerea are pipetted into each. For incubation, the treated/inoculated apples are set up for five days.
4. Disease occurs as rotten apple tissue surrounding the inoculated wounds. The diameter of the rotten zone around each wound is measured.
1. Technical compounds are formulated in a solvent system consisting of 5% acetone and 0.05% Tween 20 in deionized water. Compounds are dissolved in acetone prior to dilution with water. Formulated compounds are prepared using deionized water.
2. Three kinds of controls are included:
Assessments of the diseases took place at the indicated day after the application of the compounds. Per cent infected leaf area infected was evaluated. The efficacy of the compounds/compounds mixtures to control the diseases was calculated by using the formula: [formula]
as §4
Fungicidal efficacy of the mixture of Azolopyrimidine A+vinclozolin (3 day residual) against Botrytis cinerea on apple fruits The tank mix was obtained from technical material of Azolopyrimidine A and a WG formulation containing 500 g vinclozolin per kg.
Fungicidal efficacy of the mixture of Azolopyrimidine A+cyprodinil (3 day residual) against Botrytis cinerea on apple fruits The tank mix was obtained from technical material of Azolopyrimidine A and a WG formulation containing 750 g cyprodinil per kg.
Fungicidal efficacy of the mixture of Azolopyrimidine A+benomyl (3 day residual) against Botrytis cinerea on apple fruits The tank mix was obtained from technical material of Azolopyrimidine A and a WP formulation containing 500 g benomyl per kg.

Puccinia recondita [4] = test: Greenhouse, Puccinia recondita on wheat, 1 day curative, plants sprayed twice, once with each compound; conditions: Example 12
Description: as §1, §8, §9, §10, §11, §12, §13, §14, §3, §4
Fungicidal efficacy of the mixture of Azolopyrimidine C+kresoxim methyl (1 day curative) against Puccinia recondita on wheat Plants sprayed twice, once with each compound. The tank mixes were obtained from a SC formulation containing 100 g Azolopyrimidine C per liter and a WG containing 500 g kresoxim methyl per kg.

[5] = Azolopyrimidine A 125 g/ha alone

Fc1ccc([C@]2(Cn3cncn3)O[C@H]2c2ccccc2Cl)cc1 (racemic) [epoxiconazole]
Observed Efficacy (Septoria tritici; epoxiconazole 63 g/ha alone, 15 days after application, field, wheat): 93
Observed Efficacy (Blumeria graminis [1]; epoxiconazole 63 g/ha alone): 40
Observed Efficacy (Puccinia recondita [2]; epoxiconazole 63 g/ha alone): 95

CC1CCN(c2c(-c3c(F)cccc3Cl)c(Cl)nc3ncnn23)CC1 [Azolopyrimidine A, 5-chloro-6-(2-chloro-6-fluorophenyl)-7-(4-methylpiperid-1-yl)-[1,2,4]triazolo[1,5-a]pyrimidine]
Observed Efficacy (Leptosphaeria nodorum; Example 1, dose rate 10 ppm): 35%
Observed Efficacy (Leptosphaeria nodorum; Example 1, dose rate 100 ppm): 40%
Observed Efficacy (Leptosphaeria nodorum; Example 2, dose rate 100 ppm): 40%
Observed Efficacy (Blumeria graminis [3]; dose rate 10 ppm): 14%
Observed Efficacy (Botrytis cinerea; Example 4, dose rate 1 ppm): 0%
Observed Efficacy (Botrytis cinerea; Example 4, dose rate 10 ppm): 33%
Observed Efficacy (Botrytis cinerea; Example 5, dose rate 1 ppm): 0%
Observed Efficacy (Botrytis cinerea; Example 5, dose rate 10 ppm): 33%
Observed Efficacy (Botrytis cinerea; Example 6, dose rate 1 ppm): 0%
Observed Efficacy (Botrytis cinerea; Example 6, dose rate 10 ppm): 0%
Observed Efficacy (Botrytis cinerea; Example 7, dose rate 1 ppm): 0%
Observed Efficacy (Botrytis cinerea; Example 7, dose rate 10 ppm): 25%
Observed Efficacy (Septoria tritici; Azolopyrimidine A 125 g/ha alone, 15 days after application, field, wheat): 63
Observed Efficacy (Blumeria graminis [1]; [5]): 22
Observed Efficacy (Puccinia recondita [2]; [5]): 0

CO/N=C(/C(=O)OC)c1ccccc1COc1ccccc1C [kresoxim methyl]
Observed Efficacy (Puccinia recondita [4]; dose rate 25 g/ha): 0%
Observed Efficacy (Puccinia recondita [4]; dose rate 50 g/ha): 1%
Observed Efficacy (Puccinia recondita [4]; dose rate 100 g/ha): 0%
Observed Efficacy (Puccinia recondita [4]; dose rate 200 g/ha): 1%
Observed Efficacy (Puccinia recondita [4]; dose rate 400 g/ha): 5%
Observed Efficacy (Septoria tritici; Example 35, 7 days after application, dose rate 100 g/ha): 40%
Observed Efficacy (Septoria tritici; Example 35, 22 days after application, dose rate 100 g/ha): 64%
Observed Efficacy (Septoria tritici; Example 35, 34 days after application, dose rate 50 g/ha): 44%
Observed Efficacy (Septoria tritici; Example 35, 34 days after application, dose rate 100 g/ha): 59%
Observed Efficacy (Septoria tritici; kresoxim methyl 100 g/ha alone, 41 days after application, field, wheat): 92
Observed Efficacy (Blumeria graminis [1]; kresoxim methyl 100 g/ha alone): 85
Observed Efficacy (Puccinia recondita [2]; kresoxim methyl 100 g/ha alone): 0

CCCC1COC(Cn2cncn2)(c2ccc(Cl)cc2Cl)O1 (stereo not drawn) [propiconazole]
Observed Efficacy (Septoria tritici; propiconazole 63 g/ha alone, 15 days after application, field, wheat): 72
Observed Efficacy (Puccinia recondita [2]; propiconazole 63 g/ha alone): 49

CC(C)(C)C(O)(CCc1ccc(Cl)cc1)Cn1cncn1 (stereo not drawn) [tebuconazole]
Observed Efficacy (Leptosphaeria nodorum; Example 2, dose rate 0.02 ppm): 25%
Observed Efficacy (Leptosphaeria nodorum; Example 2, dose rate 0.2 ppm): 19%
Observed Efficacy (Blumeria graminis [3]; dose rate 0.02 ppm): 2%
Observed Efficacy (Blumeria graminis [3]; dose rate 0.2 ppm): 9%

— US20030206968A1, “Fungicidal mixtures” (priority 1999, published 2003)
